Experiment [1] has as its system 3D atrial microtissues (hiPSC-atrial cardiomyocytes with 5% human cardiac fibroblasts). Description: Optical mapping of action potentials of 3D atrial microtissues under 1 Hz pacing. The note with it: for APD30 / APD50 / APD80 / APDMxR / APDTri/APDMxR / Rise Time: mean ± SD. The experiment is classed as cell-based. The procedure: (§1) 3D microtissue generation. Sterile 2% (wt/vol) agarose in PBS were pipetted into 35-microwell molds with hemispherical bottoms (FIG. 1C; 3D Petri Dish®, MicroTissues Inc., see MilliporeSigma, St. Louis, Mo., USA). After casted, hydrogels equilibrated in RPMI/B27 media with 1% Pen/Strep overnight in an incubator. Lactate-purified hiPSC-cardiomyocytes were then harvested, singularized, and suspended in RPMI/B27 media with 10% FBS and 1% Pen/Strep, collecting a subset of the cells for flow cytometry analysis of cTnT and MLC2v expression. […] Cells were allowed to settle into the cylindrical recesses for 30 minutes before adding media supplemented with 5 μM ROCK Inhibitor. Culture medium was changed one day post-seeding and replaced every other day. Self-assembling, spheroidal, and scaffold-free 3D microtissues were electrically field stimulated for six-eight days with a 1 Hz, 10.0 V, and 4.0 milliseconds duration bipolar pulse train (C-Pace EP, IonOptix, Westwood, Mass., USA) to precondition the microtissues before optical mapping. […] et al., Proc. Natl. Acad. Sci., U.S.A., 101, 18129-18134 (2004). The 3D microtissues beat synchronously with 1 Hz stimulation within two days, and tissue compaction were observed within three days post-seeding. Optical mapping of cardiac action potential. The inventors transferred hydrogels containing microtissues to a Petri dish on a temperature-controlled chamber (Dual Automatic Temperature Controller TC-344B, Warner Instrument, Hamden, Conn., USA) to maintain ambient temperatures of 35±1° C. throughout imaging. Microtissues were gently perfused in a solution containing (in mM) 140 NaCl, 5.1 KCl, 1 MgCl2, 1 CaCL2, 0.33 NaH2PO4, 5 HEPES, and 7.5 glucose warmed with an inline heater. Microtissues were allowed to equilibrate in the perfusion solution for thirty minutes and subsequently labeled with a voltage-sensitive dye (5 μM di-4-ANEPPS) for five minutes to enable membrane potential (Vm) recordings of action potential. Excess residual dyes were washed out thoroughly before data collection. An active-pixel sensor (CMOS sensor) camera acquired fluorescence images at 1000 frames-per-second, and action potential traces were reconstructed from fluorescence intensity data. Semi-automated analyses of action potential parameters were conducted using an in-house analysis software and included rise time, […] to maximum repolarization rate ([…]), and APD triangulation ([…]). Screening of arrhythmogenic compounds. […] Three molds of microtissues (two atrial cardiomyocytes and one ventricular cardiomyocytes) were used to test the compound 4-aminopyridine under 1 Hz electrical stimulation with a platinum field electrode (Myopacer EP field stimulator, IonOptix, Westwood, Mass., USA). […] At each dose, the microtissues were allowed to respond to the drug for five-ten minutes before action potential recordings were acquired. At least ten seconds of data were acquired per microtissue at each dose. Instead, three molds of atrial microtissues were used to test the compound ivabradine without electrical stimulation to investigate how action potential properties and spontaneous activity were altered in response to the drug.

Experiment [2] relates to 3D ventricular microtissues (hiPSC-ventricular cardiomyocytes with 5% human cardiac fibroblasts). Description: Optical mapping of action potentials of 3D ventricular microtissues under 1 Hz pacing. In kind it is cell-based. The conditions noted are these: for APD30 / APD50 / APD80 / APDTri/APDMxR / Rise Time / APDMxR: mean ± SD. How it is done: as §1
Experiment [3] deals with 3D atrial microtissues (spontaneous activity, If channel). Description: Spontaneous action potential activity of atrial microtissues without electrical stimulation. The experiment is classed as cell-based, human. The procedure: 3D microtissue generation. Sterile 2% (wt/vol) agarose in PBS were pipetted into 35-microwell molds with hemispherical bottoms (FIG. 1C; 3D Petri Dish®, MicroTissues Inc., see MilliporeSigma, St. Louis, Mo., USA). After casted, hydrogels equilibrated in RPMI/B27 media with 1% Pen/Strep overnight in an incubator. Lactate-purified hiPSC-cardiomyocytes were then harvested, singularized, and suspended in RPMI/B27 media with 10% FBS and 1% Pen/Strep, collecting a subset of the cells for flow cytometry analysis of cTnT and MLC2v expression. […] Cells were allowed to settle into the cylindrical recesses for 30 minutes before adding media supplemented with 5 μM ROCK Inhibitor. Culture medium was changed one day post-seeding and replaced every other day. Self-assembling, spheroidal, and scaffold-free 3D microtissues were electrically field stimulated for six-eight days with a 1 Hz, 10.0 V, and 4.0 milliseconds duration bipolar pulse train (C-Pace EP, IonOptix, Westwood, Mass., USA) to precondition the microtissues before optical mapping. […] et al., Proc. Natl. Acad. Sci., U.S.A., 101, 18129-18134 (2004). The 3D microtissues beat synchronously with 1 Hz stimulation within two days, and tissue compaction were observed within three days post-seeding. Optical mapping of cardiac action potential. The inventors transferred hydrogels containing microtissues to a Petri dish on a temperature-controlled chamber (Dual Automatic Temperature Controller TC-344B, Warner Instrument, Hamden, Conn., USA) to maintain ambient temperatures of 35±1° C. throughout imaging. Microtissues were gently perfused in a solution containing (in mM) 140 NaCl, 5.1 KCl, 1 MgCl2, 1 CaCL2, 0.33 NaH2PO4, 5 HEPES, and 7.5 glucose warmed with an inline heater. Microtissues were allowed to equilibrate in the perfusion solution for thirty minutes and subsequently labeled with a voltage-sensitive dye (5 μM di-4-ANEPPS) for five minutes to enable membrane potential (Vm) recordings of action potential. Excess residual dyes were washed out thoroughly before data collection. An active-pixel sensor (CMOS sensor) camera acquired fluorescence images at 1000 frames-per-second, and action potential traces were reconstructed from fluorescence intensity data. Semi-automated analyses of action potential parameters were conducted using an in-house analysis software and included rise time, […] to maximum repolarization rate ([…]), and APD triangulation ([…]). Screening of arrhythmogenic compounds. […] Three molds of microtissues (two atrial cardiomyocytes and one ventricular cardiomyocytes) were used to test the compound 4-aminopyridine under 1 Hz electrical stimulation with a platinum field electrode (Myopacer EP field stimulator, IonOptix, Westwood, Mass., USA). […]

The subject of experiment [4] is hiPSC-derived cardiomyocytes (MLC2v). Put plainly: Flow cytometry of MLC2v expression in hiPSC-cardiomyocytes. The experiment is classed as cell-based, human. The conditions noted are these: supplementation at days 3-6 of differentiation; without it 31±0.2, p<0.05; in % (unit assumed). On the technique in general: A flow cytometer gives signals particle by particle.
Procedure: Cardiomyocyte differentiation. The inventors differentiated atrial and ventricular cardiomyocytes ([…] ) from GCaMP6f-expressing human induced pluripotent stem cells (hiPSCs; WTC human iPSCs, Gladstone Institutes, San Francisco, Calif., USA) using small molecule modulations of Wnt signaling, as described previously by Burridge et al., Nature Methods, 11, 855-860 (2014), with slight modifications. hiPSCs were cultured on vitronectin coated plates in Essential 8 Medium (E8 media; Thermo Fisher Scientific, Waltham, Calif., USA). Before starting differentiation, hiPSCs were singularized, seeded onto Matrigel-coated plates in E8 media with 5 μM ROCK Inhibitor (RI; Thermo Fisher Scientific, Waltham, Calif., USA) and cultured to 80% confluency, at which point the cells were treated with 4.5 μM CHIR 99021 (Tocris Bioscience, Minneapolis, Minn., USA), a glycogen synthase kinase 3 (GSK3) inhibitor, for 24±1 hours in chemically defined medium CDM3 basal medium (RPMI 1640 Thermo Fisher Scientific, Waltham, Mass., USA) supplemented with L-ascorbic acid and human serum albumin). […] Samples were run on a BD FACSAriaTM Illu Flow Cytometer (BD Biosciences, San Jose, Calif.), and data were analyzed with FlowJo (BD Biosciences, San Jose, Calif.).

Turning to `Nc1ccncc1` [4-Aminopyridine], the APD30 is listed as 75.2 ± 11.4 ms in experiment [1] (1 μM); 75.2 ± 11.4 ms in experiment [1] (3 μM); 84.0 ± 10.6 ms in experiment [1] (100 μM); 244.6 ± 38.4 ms in experiment [2] (1 μM); 233.3 ± 35.8 ms in experiment [2] (3 μM); 236.7 ± 32.5 ms in experiment [2] (100 μM). Also, the APD50 in experiment [1] (1 μM) was found to be 95.7 ± 12.9 ms; in experiment [1] (3 μM) it was 97.5 ± 11.4 ms; in experiment [1] (100 μM), 104.8 ± 12.0 ms; in experiment [2] (1 μM), 287.8 ± 49.9 ms; in experiment [2] (3 μM) it was 275.7 ± 47.7 ms; in experiment [2] (100 μM), 280.0 ± 44.0 ms. In addition, the APD80 in experiment [1] (1 μM) stood at 121.4 ± 16.2 ms; in experiment [1] (3 μM), 123.5 ± 14.7 ms; in experiment [1] (100 μM) it was 129.9 ± 15.9 ms; in experiment [2] (1 μM), 329.6 ± 50.6 ms; in experiment [2] (3 μM), 321.6 ± 54.1 ms; in experiment [2] (100 μM) it was 325.6 ± 48.5 ms. Besides, the APDMxR in experiment [1] (1 μM) worked out at 126.6 ± 15.8 ms; in experiment [1] (3 μM), 128.3 ± 12.9 ms; in experiment [1] (100 μM) it was 136.6 ± 14.6 ms; in experiment [2] (3 μM) it was 307.5 ± 55.2 ms; in experiment [2] (100 μM), 312.5 ± 51.7 ms. The APDTri/APDMxR in experiment [1] (1 μM) is reported as 0.24 ± 0.03; in experiment [1] (3 μM), 0.24 ± 0.03; in experiment [1] (100 μM), 0.23 ± 0.03; in experiment [2] (1 μM), 0.09 ± 0.01′; in experiment [2] (3 μM), 0.10 ± 0.02; in experiment [2] (100 μM) it was 0.10 ± 0.02. The “Rise Time” value was found to be 11.9 ± 2.6 ms in experiment [1] (1 μM, n=3 batches); 11.8 ± 2.2 ms in experiment [1] (3 μM); 14.0 ± 3.7 ms in experiment [1] (100 μM); 6.9 ± 1.9 ms in experiment [2] (1 μM); 7.1 ± 2.4 ms in experiment [2] (3 μM); 7.5 ± 2.6 ms in experiment [2] (100 μM). The “Change of rise time and APDTri (in words)” value in experiment [1] (100 μM) is on record as “significant increase”. The “Change of APD30, APD50, APD80 and APDMxR (in words)” value in experiment [1] (increasing doses (1, 3, 100 μM)) is on record as “significantly prolonged”; in experiment [2] (all dosages) it was “No significant changes”.
Turning to `COc1cc2c(cc1OC)CC(=O)N(CCCN(C)C[C@H]1Cc3cc(OC)c(OC)cc31)CC2` [Ivabradine], the “Effect on spontaneous activity (share of microtissues, in words)” value in experiment [3] (atrial microtissues, 1 μM, no electrical stimulation) was “eliminate spontaneous activity in more than half of the atrial microtissues”. In addition, the “Effect on spontaneous action potential events (in words)” value in experiment [3] (atrial microtissues, all tested dosages) is on record as “significantly reduced spontaneous action potential events”. In addition, in experiment [3] (atrial microtissues, higher dosages), the “Effect on spontaneous activity (in words)” value is “loss of spontaneous activity”. Further, the “Voltage trace events (in words)” value in experiment [3] (small subset of spontaneous atrial microtissues, 5 μM, recovered with 1 Hz pacing) is “events resembling failed depolarization”.
`CC1=C(/C=C/C(C)=C/C=C/C(C)=C/C(=O)O)C(C)(C)CCC1` [Retinoic acid]: the “MLC2v+ expression of cardiomyocytes” value in experiment [4] is listed as 18±5.

The values above are taken from US20220268760A1, “ATRIAL CARDIAC MICROTISSUES FOR CHAMBER-SPECIFIC ARRHYTHMOGENIC TOXICITY RESPONSES” (Brown University, priority 2021, published 2022).
